Test results from patent US20050186658A1, “Chimeric metabotropic glutamate receptors and uses thereof” (NPS Pharmaceuticals, Inc., priority 2003, published 2005).

Assays:
human CaR = target: T1, human CaR (Homo sapiens, UniProt P41180, R990G); experiment: PLC-coupled oocyte assay; type: cell-based; conditions: Xenopus oocytes; FIG. 10B
T1 construct: expressed in transfected cells; host or cells: Xenopus laevis oocytes injected with human CaR RNA (plasmid phPCaR4.0)
T1 sequence (P41180 20-1078 R990G): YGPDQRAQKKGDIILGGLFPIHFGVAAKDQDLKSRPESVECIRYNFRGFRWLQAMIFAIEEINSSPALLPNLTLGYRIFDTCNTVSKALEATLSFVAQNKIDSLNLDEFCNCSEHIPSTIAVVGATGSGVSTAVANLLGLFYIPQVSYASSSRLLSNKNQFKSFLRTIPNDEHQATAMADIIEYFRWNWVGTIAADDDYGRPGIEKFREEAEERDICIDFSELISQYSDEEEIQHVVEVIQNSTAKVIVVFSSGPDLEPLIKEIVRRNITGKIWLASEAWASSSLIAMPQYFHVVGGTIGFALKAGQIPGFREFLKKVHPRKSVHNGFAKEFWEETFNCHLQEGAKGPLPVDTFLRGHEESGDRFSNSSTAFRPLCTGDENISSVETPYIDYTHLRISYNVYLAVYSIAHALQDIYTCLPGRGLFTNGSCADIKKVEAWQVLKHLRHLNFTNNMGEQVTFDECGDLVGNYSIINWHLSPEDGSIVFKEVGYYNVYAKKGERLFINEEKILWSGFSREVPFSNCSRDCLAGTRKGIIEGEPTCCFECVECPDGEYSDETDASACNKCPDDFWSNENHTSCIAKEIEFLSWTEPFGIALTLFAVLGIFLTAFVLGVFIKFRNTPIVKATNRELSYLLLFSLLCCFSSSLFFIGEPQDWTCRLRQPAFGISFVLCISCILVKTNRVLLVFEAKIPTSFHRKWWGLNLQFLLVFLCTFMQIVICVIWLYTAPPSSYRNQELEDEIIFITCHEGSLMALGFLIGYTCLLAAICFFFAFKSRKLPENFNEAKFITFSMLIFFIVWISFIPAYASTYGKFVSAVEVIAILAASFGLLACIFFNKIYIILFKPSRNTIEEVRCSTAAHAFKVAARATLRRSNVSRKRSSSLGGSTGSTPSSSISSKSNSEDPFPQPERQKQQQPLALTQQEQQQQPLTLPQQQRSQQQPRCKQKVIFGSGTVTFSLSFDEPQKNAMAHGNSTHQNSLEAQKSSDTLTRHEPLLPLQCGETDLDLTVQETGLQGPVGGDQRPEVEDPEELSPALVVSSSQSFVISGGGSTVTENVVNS

CaSPhmGluR3(27-33) = target: T2, CaSPhmGluR3(27-33) (Homo sapiens, UniProt Q14832); experiment: oocyte assay for Gαi-coupled receptors (GIRK1/GIRK4 co-injection, voltage clamp); type: cell-based; conditions: 100 uM L-glutamate; Xenopus oocytes; FIG. 5
T2 construct: CaR signal peptide (first 27 amino acids of CaR) (N); expressed in transfected cells; host or cells: Xenopus laevis oocytes injected with RNA (with GIRK1 and GIRK4 RNA)
T2 sequence (Q14832 with tags, fused parts or gaps): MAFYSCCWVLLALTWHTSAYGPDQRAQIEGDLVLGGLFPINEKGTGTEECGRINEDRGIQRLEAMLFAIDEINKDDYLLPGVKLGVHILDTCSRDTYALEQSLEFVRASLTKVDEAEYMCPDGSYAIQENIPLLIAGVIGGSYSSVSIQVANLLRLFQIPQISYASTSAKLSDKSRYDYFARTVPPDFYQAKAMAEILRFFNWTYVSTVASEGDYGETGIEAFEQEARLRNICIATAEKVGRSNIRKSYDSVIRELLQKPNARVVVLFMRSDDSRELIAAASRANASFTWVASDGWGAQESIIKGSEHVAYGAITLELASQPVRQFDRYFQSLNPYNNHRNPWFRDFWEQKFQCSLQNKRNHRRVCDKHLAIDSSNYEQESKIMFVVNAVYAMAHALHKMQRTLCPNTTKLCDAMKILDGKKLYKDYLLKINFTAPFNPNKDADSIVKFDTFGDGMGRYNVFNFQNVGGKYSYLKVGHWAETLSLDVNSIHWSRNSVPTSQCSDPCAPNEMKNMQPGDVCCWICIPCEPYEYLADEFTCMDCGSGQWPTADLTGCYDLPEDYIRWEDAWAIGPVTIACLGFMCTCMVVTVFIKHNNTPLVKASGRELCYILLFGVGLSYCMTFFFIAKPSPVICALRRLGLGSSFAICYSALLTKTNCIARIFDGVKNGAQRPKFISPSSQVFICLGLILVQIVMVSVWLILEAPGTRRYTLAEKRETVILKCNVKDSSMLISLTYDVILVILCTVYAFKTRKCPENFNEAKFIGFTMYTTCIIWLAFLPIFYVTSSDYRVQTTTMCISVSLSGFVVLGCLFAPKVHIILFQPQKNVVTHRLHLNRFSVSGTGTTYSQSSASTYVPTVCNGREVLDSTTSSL
Experimental: (§1) The ability of each Gαi-coupled mGlu or mGluR-CaR chimeric receptors to function was determined in Xenopus oocytes, with co-injection of the G-protein inward rectifying potassium channel subunits, GIRK 1 and GIRK4 (Kubo et al 1993 Nature 364: 802). Individual oocytes were injected with a mixture containing 5 ng receptor, 1.5 ng GIRK1 and 1.5 ng GIRK4. […] Further details can be found in Saugstad, et al., J. Neurosci. 1996 16:5979-5985. Application of glutamate evoked inward potassium currents in oocytes expressing both the chimeric receptors and the potassium channels, but not in oocytes expressing only the receptor or only the channel subunits.

CaSPhmGluR7(27-45) = target: T3, CaSPhmGluR7(27-45) (Homo sapiens, UniProt Q14831); experiment: as above; type: cell-based; conditions: 100 uM L-glutamate; Xenopus oocytes; FIG. 4
T3 construct: human CaR signal peptide (first 27 amino acids of CaR), replacing mGluR7 residues 1-44 (N); expressed in transfected cells; host or cells: Xenopus laevis oocytes injected with in vitro transcribed RNA (co-injected with GIRK1 and GIRK4 RNA)
Experimental: as §1

CaSPhmGluR6(27-35) = target: T4, CaSPhmGluR6(27-35) (Homo sapiens, UniProt O15303, Q59P); experiment: as above; type: cell-based; conditions: 100 uM L-glutamate; Xenopus oocytes; FIG. 7
T4 construct: CaR signal peptide (first 27 amino acids of CaR) (N); expressed in transfected cells; host or cells: Xenopus laevis oocytes injected with RNA
T4 sequence (O15303 with tags, fused parts or gaps Q59P): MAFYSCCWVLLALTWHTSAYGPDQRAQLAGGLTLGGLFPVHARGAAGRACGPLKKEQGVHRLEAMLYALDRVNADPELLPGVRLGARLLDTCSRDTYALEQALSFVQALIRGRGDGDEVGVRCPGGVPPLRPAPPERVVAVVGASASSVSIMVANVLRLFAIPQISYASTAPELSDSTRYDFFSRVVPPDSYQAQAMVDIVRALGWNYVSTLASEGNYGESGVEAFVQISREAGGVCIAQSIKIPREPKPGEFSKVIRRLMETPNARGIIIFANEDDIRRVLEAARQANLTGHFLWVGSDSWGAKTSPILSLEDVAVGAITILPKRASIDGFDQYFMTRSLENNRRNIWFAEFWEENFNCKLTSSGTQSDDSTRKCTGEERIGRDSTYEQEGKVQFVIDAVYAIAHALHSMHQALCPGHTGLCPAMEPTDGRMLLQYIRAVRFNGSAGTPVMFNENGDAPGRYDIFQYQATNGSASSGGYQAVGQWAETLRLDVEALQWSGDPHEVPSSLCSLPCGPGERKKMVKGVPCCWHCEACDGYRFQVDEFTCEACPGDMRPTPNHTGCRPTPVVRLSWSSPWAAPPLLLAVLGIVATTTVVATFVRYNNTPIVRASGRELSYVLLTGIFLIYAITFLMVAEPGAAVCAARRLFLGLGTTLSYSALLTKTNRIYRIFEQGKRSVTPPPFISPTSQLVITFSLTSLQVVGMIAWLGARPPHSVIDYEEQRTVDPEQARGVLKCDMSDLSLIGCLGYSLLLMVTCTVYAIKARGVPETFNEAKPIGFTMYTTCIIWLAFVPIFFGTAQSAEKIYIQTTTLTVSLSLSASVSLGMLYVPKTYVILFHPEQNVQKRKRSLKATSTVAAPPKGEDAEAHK
Experimental: as §1

CaSPhmGluR5(27-22) = target: T5, CaSPhmGluR5(27-22) (Homo sapiens, UniProt P41594); experiment: oocyte assay for PLC-coupled receptors (voltage clamp, Cl- current); type: cell-based; conditions: 100 uM L-glutamate; Xenopus oocytes; FIG. 8
T5 construct: CaR signal peptide (first 27 amino acids of CaR) (N); expressed in transfected cells; host or cells: Xenopus laevis oocytes injected with in vitro transcribed RNA

CaSPhmGluR2(27-19) = target: T6, CaSPhmGluR2(27-19) (Homo sapiens, UniProt Q14416); experiment: oocyte assay for Gαi-coupled receptors (GIRK1/GIRK4 co-injection, voltage clamp); type: cell-based; conditions: 100 uM L-glutamate; Xenopus oocytes; FIG. 6
T6 construct: CaR signal peptide (first 27 amino acids of CaR) (N); expressed in transfected cells; host or cells: Xenopus laevis oocytes injected with RNA (with GIRK1 and GIRK4 RNA)
T6 sequence (Q14416 with tags, fused parts or gaps): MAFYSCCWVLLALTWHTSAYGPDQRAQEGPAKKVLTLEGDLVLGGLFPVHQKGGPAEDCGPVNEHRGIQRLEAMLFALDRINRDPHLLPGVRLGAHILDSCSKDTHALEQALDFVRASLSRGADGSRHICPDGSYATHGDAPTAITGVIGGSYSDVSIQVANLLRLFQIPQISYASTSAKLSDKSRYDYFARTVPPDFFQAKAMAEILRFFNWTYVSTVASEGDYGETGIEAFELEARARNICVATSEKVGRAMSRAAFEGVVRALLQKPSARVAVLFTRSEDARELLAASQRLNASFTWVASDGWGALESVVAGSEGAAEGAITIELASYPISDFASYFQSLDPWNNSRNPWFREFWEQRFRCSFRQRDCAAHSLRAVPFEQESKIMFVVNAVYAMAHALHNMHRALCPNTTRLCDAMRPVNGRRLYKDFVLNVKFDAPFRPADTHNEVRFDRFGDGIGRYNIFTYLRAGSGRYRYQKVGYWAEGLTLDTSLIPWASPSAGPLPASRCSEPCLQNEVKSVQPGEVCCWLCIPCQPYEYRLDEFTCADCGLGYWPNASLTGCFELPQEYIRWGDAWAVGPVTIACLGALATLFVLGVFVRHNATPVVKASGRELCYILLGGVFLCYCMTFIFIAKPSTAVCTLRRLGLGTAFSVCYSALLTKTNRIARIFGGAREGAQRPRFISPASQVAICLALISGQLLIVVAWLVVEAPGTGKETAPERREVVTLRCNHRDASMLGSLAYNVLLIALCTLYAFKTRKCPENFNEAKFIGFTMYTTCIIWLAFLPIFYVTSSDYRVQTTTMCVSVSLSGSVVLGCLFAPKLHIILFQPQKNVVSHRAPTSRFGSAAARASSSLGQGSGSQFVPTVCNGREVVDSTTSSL

pmGluR1/CaR chimera = pmGluR1/CaR chimera (Rattus norvegicus, UniProt P23385); conditions: Xenopus oocytes; compared with rat mGluR1; FIG. 9
Chain of pmGluR1/CaR chimera (P23385 with tags, fused parts or gaps): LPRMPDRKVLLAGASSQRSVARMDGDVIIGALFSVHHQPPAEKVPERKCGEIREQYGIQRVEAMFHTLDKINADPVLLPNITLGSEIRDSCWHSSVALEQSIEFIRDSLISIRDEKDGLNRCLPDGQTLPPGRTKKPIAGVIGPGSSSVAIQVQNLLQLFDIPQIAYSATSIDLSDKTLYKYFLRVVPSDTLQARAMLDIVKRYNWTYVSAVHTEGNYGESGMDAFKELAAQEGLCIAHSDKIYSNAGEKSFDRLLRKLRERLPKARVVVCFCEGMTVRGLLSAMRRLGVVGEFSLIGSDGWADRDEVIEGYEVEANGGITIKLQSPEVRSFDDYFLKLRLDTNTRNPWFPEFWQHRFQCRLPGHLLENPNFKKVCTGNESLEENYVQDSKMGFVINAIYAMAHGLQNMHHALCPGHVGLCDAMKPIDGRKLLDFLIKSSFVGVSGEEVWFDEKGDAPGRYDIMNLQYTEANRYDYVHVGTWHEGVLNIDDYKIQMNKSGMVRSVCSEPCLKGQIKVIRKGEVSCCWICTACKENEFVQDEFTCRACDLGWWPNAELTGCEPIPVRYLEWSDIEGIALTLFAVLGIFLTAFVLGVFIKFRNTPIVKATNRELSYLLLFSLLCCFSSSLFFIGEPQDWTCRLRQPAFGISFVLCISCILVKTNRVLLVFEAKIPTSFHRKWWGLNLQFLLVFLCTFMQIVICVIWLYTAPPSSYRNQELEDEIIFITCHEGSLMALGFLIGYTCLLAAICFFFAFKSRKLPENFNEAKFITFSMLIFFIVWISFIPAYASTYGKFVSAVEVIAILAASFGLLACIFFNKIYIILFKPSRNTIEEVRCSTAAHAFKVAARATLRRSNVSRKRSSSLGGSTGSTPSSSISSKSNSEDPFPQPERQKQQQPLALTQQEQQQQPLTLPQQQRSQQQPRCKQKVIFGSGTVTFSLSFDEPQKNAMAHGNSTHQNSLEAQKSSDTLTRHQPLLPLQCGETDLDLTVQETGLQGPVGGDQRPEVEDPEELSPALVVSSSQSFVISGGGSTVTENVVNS

rat mGluR1 = rat mGluR1 (Rattus norvegicus, UniProt P23385); conditions: Xenopus oocytes; FIG. 9 and FIG. 10A
Chain of rat mGluR1 (P23385 19-1199): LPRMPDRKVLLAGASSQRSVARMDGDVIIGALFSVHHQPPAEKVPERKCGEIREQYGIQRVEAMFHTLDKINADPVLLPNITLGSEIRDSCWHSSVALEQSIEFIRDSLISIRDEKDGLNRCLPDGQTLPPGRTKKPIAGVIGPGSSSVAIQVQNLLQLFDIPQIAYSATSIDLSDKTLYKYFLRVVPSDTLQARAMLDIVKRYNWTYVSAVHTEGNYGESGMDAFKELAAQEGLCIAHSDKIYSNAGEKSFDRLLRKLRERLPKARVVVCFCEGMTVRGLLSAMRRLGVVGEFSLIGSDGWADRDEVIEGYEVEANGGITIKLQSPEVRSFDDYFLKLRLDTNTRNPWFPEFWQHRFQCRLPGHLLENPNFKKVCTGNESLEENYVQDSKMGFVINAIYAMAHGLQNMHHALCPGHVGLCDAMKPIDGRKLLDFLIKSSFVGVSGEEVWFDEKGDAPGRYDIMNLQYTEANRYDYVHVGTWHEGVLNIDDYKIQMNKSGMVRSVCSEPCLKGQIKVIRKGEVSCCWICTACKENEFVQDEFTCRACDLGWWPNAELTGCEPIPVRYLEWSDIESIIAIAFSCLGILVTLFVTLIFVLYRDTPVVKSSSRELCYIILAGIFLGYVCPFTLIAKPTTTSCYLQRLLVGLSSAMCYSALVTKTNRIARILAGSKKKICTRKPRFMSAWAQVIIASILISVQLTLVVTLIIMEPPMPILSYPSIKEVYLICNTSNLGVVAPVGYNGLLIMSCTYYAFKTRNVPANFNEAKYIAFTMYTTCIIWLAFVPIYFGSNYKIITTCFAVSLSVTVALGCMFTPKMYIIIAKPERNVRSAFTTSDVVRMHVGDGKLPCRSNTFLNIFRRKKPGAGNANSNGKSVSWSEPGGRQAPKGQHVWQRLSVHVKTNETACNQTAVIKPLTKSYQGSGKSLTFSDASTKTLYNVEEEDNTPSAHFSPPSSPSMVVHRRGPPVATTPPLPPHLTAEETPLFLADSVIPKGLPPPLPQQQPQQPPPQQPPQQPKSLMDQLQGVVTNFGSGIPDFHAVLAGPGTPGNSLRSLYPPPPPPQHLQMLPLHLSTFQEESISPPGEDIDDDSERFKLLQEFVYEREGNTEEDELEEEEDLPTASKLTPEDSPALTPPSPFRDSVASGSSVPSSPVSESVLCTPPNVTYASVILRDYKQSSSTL

Structure (SMILES) | Cl- current in oocytes injected with human CaR RNA (human CaR) | activation of the chimeric receptor (CaSPhmGluR3(27-33)) | activation of the chimeric receptor (CaSPhmGluR7(27-45)) | activation of the chimeric receptor (CaSPhmGluR6(27-35)) | activation of the chimeric receptor (CaSPhmGluR5(27-22)) | activation of the receptor (CaSPhmGluR2(27-19)) | receptor response (Cl- currents on release of intracellular Ca2+) (pmGluR1/CaR chimera) | receptor response (Cl- currents on release of intracellular Ca2+) (rat mGluR1)
N[C@@H](CCC(=O)O)C(=O)O [L-glutamate] | elicits oscillatory increases in Cl— current | activation of the chimeric receptor was seen | robust activation | Activation of the chimeric receptor | Activation of the chimeric receptor | Activation of the receptor | – | –
N[C@@H](Cn1oc(=O)[nH]c1=O)C(=O)O [quisqualate] | – | – | – | – | – | – | respond comparably | respond comparably
